The target of one data set is T1, Gαs/GDP (Homo sapiens, UniProt P63092).
T1 construct: hexahistidine (N, cleaved yes); made in house; host or cells: E. coli BL21(DE3)
In words: Bio-layer interferometry (BLI), GDP-bound Gαs. The conditions noted are these: read-out: KD, binding to Gαs/GDP. On the procedure:
BLI experiments were performed using an OctetRED384 instrument from ForteBio. All experiments were performed at 25°C using BLI buffer (10 mM HEPES pH 7.4, 150 mM NaCl, 1mM MgCl2, 0.05% Tween 20, 0.1% DMSO, 0.2 mM GNP or GDP). Cyclic peptides or Gα proteins were diluted to a series of concentrations (Final concentrations were indicated in Figures) in BLI buffer plus 10 μM Biotin. Assays were conducted in Greiner 384well, black, flat bottom polypropylene plates containing the protein solutions, BLI buffer plus 10 μM Biotin for dissociation, and serial dilutions of cyclic peptides to be tested.
Biotinylated proteins or cyclic peptides were immobilized on Streptavidin biosensors by dipping sensors into plate wells containing protein solutions at a concentration of 50–150 nM. Protein loading is around 2–3 nm. Cyclic peptide loading is around 0.2–0.3 nm. Sensors loaded with proteins or cyclic peptides were moved and dipped into wells with BLI buffer plus 10 μM Biotin to block unlabeled Streptavidin. […]
Raw kinetic data collected were processed with the Data Analysis software provided by the manufacturer using single reference subtraction in which buffer-only reference was subtracted (For GN13 analysis). […] The resulting data were analyzed based on a 1:1 binding model from which kon and koff values were obtained and then Kd values were calculated.
On the technique in general: Biolayer interferometry detects binding as a change in optical thickness at a sensor tip.

The next data set concerns the target T2, Gαs (Homo sapiens, UniProt P63092).
T2 construct: vector His tag with thrombin/Drice site (removed); made in house; host or cells: E. coli BL21(DE3)
The data set can be described thus: Steady-state GTPase assay, Gαs short isoform. The format is biochemical. The conditions noted are these: read-out: IC50, inhibition of Gαs steady-state GTPase activity. As to the method: (§1) WT Gαs (both short and long) was diluted to a 6 μM stock (4X) in GTPase assay buffer (20 mM HEPES 7.5, 150 mM NaCl, 1 mM MgCl2). The protein was 1:1 (v/v) diluted with 4X cyclic peptide stock (0, 1.56, 3.12, 6.25, 12.5, 25, 50, 100 μM) in GTPase assay buffer, and incubated at 37°C for an hour. The samples were then 1:1 (v/v) diluted with reaction buffer (20 mM HEPES 7.5, 150 mM NaCl, 1 mM MgCl2, and 1 mM GTP) and incubated at 37°C. After 30, 50, 70, 90 min, 50 μL of the sample was removed to measure the inorganic phosphate (Pi) concentration by PiColorLock Phosphate Detection kit. A standard curve was made using the 0.1 mM Pi stock in the kit. Final [cyclic peptide]: 0, 0.39, 0.78, 1.56, 3.12, 6.25, 12.5, 25 μM; Final [Gαs]: 1.5 μM; Final [GTP]: 500 μM.

The next data set has as its target T3, long isoform of Gαs (Homo sapiens, UniProt P63092).
T3 construct: made in house; host or cells: E. coli BL21(DE3)
In words: Steady-state GTPase assay, Gαs long isoform. The format is biochemical. The conditions noted are these: read-out: IC50, inhibition of steady-state GTPase activity of long isoform of Gαs. On the procedure:
as §1

The target in a further data set is T4, Gαs/GDP and Gβγ(C68S) (Homo sapiens, UniProt P63092).
T4 construct: hexahistidine (N, cleaved yes); made in house; host or cells: E. coli BL21(DE3) (Gαs); Sf9 insect cells (Gβ1γ2)
T4 sequence (P63092 with tags, fused parts or gaps isoform P63092-2): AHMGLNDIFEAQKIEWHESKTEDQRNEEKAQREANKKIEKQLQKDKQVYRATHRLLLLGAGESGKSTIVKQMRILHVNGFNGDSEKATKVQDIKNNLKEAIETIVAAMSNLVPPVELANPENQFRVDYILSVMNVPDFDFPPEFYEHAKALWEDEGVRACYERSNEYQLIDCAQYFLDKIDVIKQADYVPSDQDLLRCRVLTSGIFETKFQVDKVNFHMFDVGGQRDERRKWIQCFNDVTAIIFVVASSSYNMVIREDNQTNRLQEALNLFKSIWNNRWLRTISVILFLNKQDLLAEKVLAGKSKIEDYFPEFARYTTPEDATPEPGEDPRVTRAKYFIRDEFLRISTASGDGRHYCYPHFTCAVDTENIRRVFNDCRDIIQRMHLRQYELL
In words: FRET based Gαs/Gβγ interaction assay. It is filed as binding. The note with it: FRET, Gαs/GDP 4 nM, Gβ1/γ2(C68S) 2 nM; read-out: IC50, inhibition of Gαs/Gβγ interaction.

Data set [1] in a line: Chemical stability assay in DMEM with 10% FBS. The format is in vitro ADME. The conditions noted are these: bovine, DMEM with 10% FBS (fetal bovine serum), 37 °C, values represent 95% confidence intervals, read-out: Half-life (hour), chemical stability in DMEM with 10% FBS. On the procedure: (§2) These assays were conducted by Pharmaron Beijing CO., Ltd. Cyclic peptides working solutions were prepared at 10 μM in DMEM with 10% FBS (Avantor, Cat# 76,294–180) or human plasma (Pooled, Male & Female, BioIVT, Cat# HMN666664). The assays were performed in duplicate. Vials were incubated at 37 °C at 60 rpm in a water bath and taken at designated time points including 0, 480, 1080 and 1440 min. For each time point, the initiation of the reaction was staggered so all the time points were terminated with cold acetonitrile containing internal standards (IS, 100 nM alprazolam, 200 nM labetalol, 200 nM Imipramine and 2 μM ketoplofen) at the same time. Samples were vortexed then centrifuged at 4°C to remove proteins. The supernatants from centrifugation were diluted by ultra-pure H2O and used for LC-MS/MS analysis. All calculations were carried out using GraphPad Prism. Remaining percentages of parent compounds at each time point were estimated by determining the peak area ratios from extractedion chromatograms.

A short description of the next data set: Plasma stability assay. The format is in vitro ADME. The note with it: both sexes, pooled human plasma, 37 °C, values represent 95% confidence intervals, read-out: Half-life (hour), plasma stability. On the procedure:
as §2

Molecules are shown by their SMILES. Where a SMILES comes first, the peptide text is derived from it. Bridges are numbered along the chain shown (N, C = ends). [ ]: non-standard residue; d: D form. Bounds are passed on as bounds.

T2 sequence (P63092 with tags, fused parts or gaps isoform P63092-2): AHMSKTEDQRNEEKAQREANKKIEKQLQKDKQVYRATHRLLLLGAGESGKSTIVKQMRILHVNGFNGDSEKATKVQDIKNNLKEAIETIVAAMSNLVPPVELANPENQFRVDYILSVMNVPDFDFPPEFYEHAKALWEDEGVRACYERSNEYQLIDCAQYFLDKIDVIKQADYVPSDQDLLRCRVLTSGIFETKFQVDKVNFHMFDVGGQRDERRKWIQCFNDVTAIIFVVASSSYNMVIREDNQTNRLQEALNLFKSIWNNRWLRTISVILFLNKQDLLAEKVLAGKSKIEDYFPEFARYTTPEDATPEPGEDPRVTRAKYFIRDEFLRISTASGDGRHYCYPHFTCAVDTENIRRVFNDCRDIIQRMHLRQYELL
T3 sequence (P63092 whole entry, canonical isoform): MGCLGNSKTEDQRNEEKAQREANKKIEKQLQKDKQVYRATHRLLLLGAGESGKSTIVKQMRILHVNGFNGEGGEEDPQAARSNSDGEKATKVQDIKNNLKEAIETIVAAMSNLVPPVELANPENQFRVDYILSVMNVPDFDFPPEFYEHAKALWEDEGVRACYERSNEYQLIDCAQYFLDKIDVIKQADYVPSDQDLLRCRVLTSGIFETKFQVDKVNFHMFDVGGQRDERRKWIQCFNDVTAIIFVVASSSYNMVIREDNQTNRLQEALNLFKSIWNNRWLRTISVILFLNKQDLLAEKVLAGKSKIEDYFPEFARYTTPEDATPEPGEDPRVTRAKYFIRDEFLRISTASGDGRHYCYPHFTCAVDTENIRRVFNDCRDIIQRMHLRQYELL

As a reminder, the half-life is how long it takes for the measured level to halve. Take `CC[C@H](C)[C@@H]1NC(=O)[C@H](CC(C)C)NC(=O)[C@@H](Cc2ccc(O)cc2)NC(=O)CSC[C@@H](C(=O)NCC(N)=O)NC(=O)[C@@H]2CCCN2C(=O)[C@H](CC(C)C)NC(=O)[C@H](CC(N)=O)NC(=O)[C@H](Cc2ccccc2)NC(=O)[C@H](C)NC(=O)[C@H](Cc2c[nH]c3ccccc23)NC(=O)[C@H](CCC(N)=O)NC(=O)[C@H](CCCNC(=N)N)NC(=O)[C@H](Cc2ccccc2)NC(=O)[C@H]([C@@H](C)O)NC1=O` [GD20] ({CH2CO}-[dY]LITFRQWAFNLPCG-NH2; thioether N-14): the Kd at Gαs/GDP was found to be 31.4 ± 0.7 nM. Besides, the IC50 at Gαs was 1150 ± 160 nM; on long isoform of Gαs it was 1320 ± 170 nM; at Gαs/GDP and Gβγ(C68S), 18.4 ± 2 nM. Moreover, the values for the half-life at 10 μM (in data set [1]; in the data set “Plasma stability assay”) were over 142 h and 16.4 to 27.1 h, respectively.

For the origin of these results see article PMC9747239, “State-selective modulation of heterotrimeric Gαs signaling with macrocyclic peptides” (Cell, 2022).
